{"source": "patent EP0184291B1", "about": "“Polyether antibiotic A80190” (ELI LILLY AND COMPANY, priority 1984, dated 1986)", "key": {"NRRL 15878": {"test_system": "NRRL 15878", "assay": "Resistance to antibiotics, sensitivity discs on seeded ISP No. 2 agar", "type": "cell-based, Actinomadura oligospora", "protocol": "(§1) Resistance to antibiotics was measured by padding antibiotic sensitivity discs onto the surface of seeded ISP No. 2 agar plates.\n(§2) Table III lists the resistance of the strain to various antibiotics at the concentrations indicated and compares it to that of A. macra."}, "A. macra": {"test_system": "A. macra", "assay": "Resistance to antibiotics, sensitivity discs on seeded ISP No. 2 agar", "type": "cell-based", "protocol": "as §1, §2"}, "[1]": {"test_system": "Eimeria acervulina (Lilly strain 59), Eimeria maxima (strain FS-177) and Eimeria tenella (strain FS-155)", "assay": "Coccidiosis test in broiler chicks, A80190 with nicarbazin (Test 1)", "type": "in vivo", "conditions": "A80190 0 p.p.m. in ration"}}, "data": [{"compound": "CC(=O)OCC1=C(C(=O)O)N2C(=O)[C@@H](NC(=O)Cc3cccs3)[C@H]2SC1", "note": "[Cephalothin]", "values": [{"measurement": "Resistance to Antibiotics", "setting": "NRRL 15878; Concentration 30 µg", "result": "+"}]}, {"compound": "CCC[C@@H]1C[C@@H](C(=O)N[C@@H]([C@H]2O[C@H](SC)[C@H](O)[C@@H](O)[C@H]2O)[C@@H](C)O)N(C)C1", "note": "[Lincomycin]", "values": [{"measurement": "Resistance to Antibiotics", "setting": "NRRL 15878; Concentration 2 µg", "result": "+"}, {"measurement": "Resistance to Antibiotics", "setting": "A. macra; Concentration 2 µg", "result": "+"}]}, {"compound": "NC[C@@H]1O[C@H](O[C@H]2[C@@H](O)[C@H](O[C@@H]3[C@@H](O)[C@H](N)C[C@H](N)[C@H]3O[C@H]3O[C@H](CN)[C@@H](O)[C@H](O)[C@H]3N)O[C@@H]2CO)[C@H](N)[C@@H](O)[C@@H]1O", "note": "[Neomycin]", "values": [{"measurement": "Resistance to Antibiotics", "setting": "NRRL 15878; Concentration 30 µg", "result": "-"}, {"measurement": "Resistance to Antibiotics", "setting": "A. macra; Concentration 30 µg", "result": "-"}]}, {"compound": "CO[C@H]1C[C@H](O[C@H]2[C@H](C)[C@@H](O[C@@H]3O[C@H](C)C[C@H](N(C)C)[C@H]3O)[C@@H](C)C[C@@]3(CO3)C(=O)[C@H](C)[C@@H](O)[C@@H](C)[C@@H](C)OC(=O)[C@@H]2C)O[C@@H](C)[C@@H]1O", "note": "[Oleandomycin]", "values": [{"measurement": "Resistance to Antibiotics", "setting": "NRRL 15878; Concentration 15 µg", "result": "-"}]}, {"compound": "CC1(C)S[C@@H]2[C@H](NC(=O)Cc3ccccc3)C(=O)N2[C@H]1C(=O)O", "note": "[Pencillin G]", "values": [{"measurement": "Resistance to Antibiotics", "setting": "NRRL 15878; Concentration 10 units", "result": "+"}]}, {"compound": "CO[C@H]1/C=C/O[C@@]2(C)Oc3c(C)c(O)c4c(O)c(c(/C=N/N5CCN(C)CC5)c(O)c4c3C2=O)NC(=O)/C(C)=C\\C=C\\[C@H](C)[C@H](O)[C@@H](C)[C@@H](O)[C@@H](C)[C@H](OC(C)=O)[C@@H]1C", "note": "[Rifampin]", "values": [{"measurement": "Resistance to Antibiotics", "setting": "NRRL 15878; Concentration 5 µg", "result": "+"}]}, {"compound": "[H]/N=C(/N)N[C@H]1[C@H](O)[C@@H](O)[C@H](O[C@@H]2O[C@@H](C)[C@](O)(C=O)[C@H]2O[C@@H]2O[C@@H](CO)[C@H](O)[C@@H](O)[C@@H]2NC)[C@@H](N/C(N)=N\\[H])[C@@H]1O", "note": "[Streptomycin]", "values": [{"measurement": "Resistance to Antibiotics", "setting": "NRRL 15878; Concentration 10 µg", "result": "-"}]}, {"compound": "CN(C)[C@@H]1C(O)=C(C(N)=O)C(=O)[C@@]2(O)C(O)=C3C(=O)c4c(O)cccc4[C@@](C)(O)[C@H]3C[C@@H]12", "note": "[Tetracycline]", "values": [{"measurement": "Resistance to Antibiotics", "setting": "NRRL 15878; Concentration 30 µg", "result": "-"}]}, {"compound": "NC[C@H]1O[C@H](O[C@H]2[C@H](O)[C@@H](O[C@H]3O[C@H](CO)[C@@H](O)[C@H](N)[C@H]3O)[C@H](N)C[C@@H]2N)[C@H](N)C[C@@H]1O", "note": "[Tobramycin]", "values": [{"measurement": "Resistance to Antibiotics", "setting": "NRRL 15878; Concentration 10 µg", "result": "-"}, {"measurement": "Resistance to Antibiotics", "setting": "A. macra; Concentration 10 µg", "result": "-"}]}, {"compound": "Nicarbazin [reference compound]", "values": [{"measurement": "CECAL LESION SCORES", "setting": "[1]; Nicarbazin 20 p.p.m.", "result": 3.19}, {"measurement": "INTESTINAL LESION SCORES", "setting": "[1]; Nicarbazin 20 p.p.m.", "result": 9.13}, {"measurement": "WEIGHT GAIN", "setting": "[1]; Nicarbazin 20 p.p.m.", "result": 159, "unit": "grams/per chicken"}, {"measurement": "CECAL LESION SCORES", "setting": "[1]; Nicarbazin 30 p.p.m.", "result": 3.50}, {"measurement": "INTESTINAL LESION SCORES", "setting": "[1]; Nicarbazin 30 p.p.m.", "result": 8.88}, {"measurement": "WEIGHT GAIN", "setting": "[1]; Nicarbazin 30 p.p.m.", "result": 174, "unit": "grams/per chicken"}, {"measurement": "CECAL LESION SCORES", "setting": "[1]; Nicarbazin 40 p.p.m.", "result": 3.17}, {"measurement": "INTESTINAL LESION SCORES", "setting": "[1]; Nicarbazin 40 p.p.m.", "result": 8.90}, {"measurement": "WEIGHT GAIN", "setting": "[1]; Nicarbazin 40 p.p.m.", "result": 211, "unit": "grams/per chicken"}, {"measurement": "CECAL LESION SCORES", "setting": "[1]; Nicarbazin 50 p.p.m.", "result": 3.19}, {"measurement": "INTESTINAL LESION SCORES", "setting": "[1]; Nicarbazin 50 p.p.m.", "result": 8.56}, {"measurement": "WEIGHT GAIN", "setting": "[1]; Nicarbazin 50 p.p.m.", "result": 222, "unit": "grams/per chicken"}, {"measurement": "CECAL LESION SCORES", "setting": "[1]; Nicarbazin 125 p.p.m.", "result": 0.33}, {"measurement": "INTESTINAL LESION SCORES", "setting": "[1]; Nicarbazin 125 p.p.m.", "result": 0.08}, {"measurement": "WEIGHT GAIN", "setting": "[1]; Nicarbazin 125 p.p.m.", "result": 279, "unit": "grams/per chicken"}]}]}
